What was measured:
[1] = 101 kPa, Liquid, Falling or rolling sphere viscometry
[2] = xn = mol fraction of the nth substance listed; settings: 101 kPa, Liquid, Falling or rolling sphere viscometry

CCCCCC[n+]1ccn(C)c1.O=S(=O)([N-]S(=O)(=O)C(F)(F)F)C(F)(F)F
[1]
Settings	viscosity [mPa·s]
288.2 K	117.8
298.2 K	70.4
308.2 K	45.4
318.2 K	31.23

CCCCCC[n+]1ccn(C)c1.O=S(=O)([N-]S(=O)(=O)C(F)(F)F)C(F)(F)F + ClC(Cl)Cl
viscosity [mPa·s], [2]
Settings	288.2 K	298.2 K	308.2 K	318.2 K
x1 = 0.074	1.701	1.462	1.265	1.104
x1 = 0.186	4.556	3.667	3.002	2.5
x1 = 0.266	8.57	6.63	5.25	4.29
x1 = 0.418	20.36	14.63	10.96	8.5
x1 = 0.511	30.16	20.92	15.19	11.49
x1 = 0.565	38	25.55	18.18	13.58
x1 = 0.651	50.6	33.3	23.1	16.97
x1 = 0.707	60.6	38.9	26.6	19.16
x1 = 0.805	78.4	49.6	33.7	24
x1 = 0.906	95.7	59.1	39.5	27.7
x1 = 1	117.8	70.4	45.4	31.23

— the NIST ThermoML archive (doi:10.1021/acs.jced.5b00503)
